Structures can show the parent of a compound that is named as a salt.
Target: T1, recombinant human 5-HT4 receptor (Homo sapiens, UniProt Q13639)
T1 construct: expressed in transfected cells
Experiment: Determination of EC50 values for 5-HT4 receptor (CHO cells, pCRE-Luc reporter)
Assay type: cell-based
Conditions: luciferase reporter, 4 hours incubation, read-out: 5-HT4 receptor agonistic binding in-vitro EC50
Description: A stable CHO cell line expressing recombinant human 5-HT4 receptor and pCRE-Luc reporter system was used for cell-based assay. The assay offers a non-radioactive based approach to determine binding of a compound to GPCRs. In this specific assay, the level of intracellular cyclic AMP, which is modulated by activation, or inhibition of the receptor is measured. The recombinant cells harbor luciferase reporter gene under the control of cAMP response element.
The above cells were grown in 96 well clear bottom white plates in Hams F12 medium containing 10% fetal bovine serum (FBS). Prior to the addition of compounds or standard agonist, cells were serum starved overnight. Increasing concentrations of test compounds were added in OptiMEM medium to the cells. The incubation was continued at 37° C. in CO2 incubator for 4 hours. Medium was removed and cells were washed with phosphate buffered saline. The cells were lysed and luciferase activity was measured in a Luminometer. Luminescence units were plotted against the compound concentrations using Graphpad software. EC50 values of the compounds were defined as the concentration required in stimulating the luciferase activity by 50%.

T1 sequence (Q13639 whole entry): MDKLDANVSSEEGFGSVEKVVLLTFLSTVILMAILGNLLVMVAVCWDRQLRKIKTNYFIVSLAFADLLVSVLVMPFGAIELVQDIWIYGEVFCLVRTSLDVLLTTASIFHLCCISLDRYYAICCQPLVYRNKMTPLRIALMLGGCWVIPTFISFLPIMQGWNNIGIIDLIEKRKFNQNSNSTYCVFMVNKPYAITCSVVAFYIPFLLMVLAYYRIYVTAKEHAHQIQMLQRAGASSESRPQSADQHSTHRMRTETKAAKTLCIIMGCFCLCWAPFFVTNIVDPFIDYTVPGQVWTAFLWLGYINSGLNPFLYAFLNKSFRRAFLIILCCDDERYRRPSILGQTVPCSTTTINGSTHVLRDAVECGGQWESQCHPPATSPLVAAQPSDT

Compound	EC50 [nM]
CCn1cc2cccc(C(=O)NCC3CCN(CCCOC)CC3)c2n1 [Example 4, N—[N-(3-methoxypropyl)piperidin-4-ylmethyl]-2-ethyl-2H-indazole-7-carboxamide fumarate]	≤ 1
CCn1cc2cccc(C(=O)NCC3C4CN(CCCOC)CC34)c2n1 (centres unmarked) [Example 5, N—[N-(3-methoxypropyl)-3-azabicyclo[3.1.0]hexane-6-ylmethyl]-2-ethyl-2H-indazole-7-carboxamide oxalate]	1.1 to 5
CC(C)n1cc2cccc(C(=O)NCC3CCN(CC(C)(C)CO)CC3)c2n1 [Example 6, N—[N-(3-hydroxy-2,2-dimethylpropyl)piperidin-4-ylmethyl]-2-isopropyl-2H-indazole-7-carboxamide L(+) Tartarate]	≤ 1
CC(C)n1cc2cccc(C(=O)NCC3CCN(CCF)CC3)c2n1 [Example 7, N—[N-(2-fluoroethyl)piperidin-4-ylmethyl]-2-isopropyl-2H-indazole-7-carboxamide]	5.1 to 20
CC(C)n1cc2cccc(C(=O)NCC3CN(Cc4ccccc4)CCO3)c2n1 (centres unmarked) [Example 8, N—[N-benzylmorpholin-2-ylmethyl]-2-isopropyl-2H-indazole-7-carboxamide fumarate]	20.1 to 50
CC(C)n1cc2cccc(C(=O)NCC3CN(CC4CCOCC4)CCO3)c2n1 (centres unmarked) [Example 9, N—[(N-tetrahydropyran-4-ylmethyl)morpholine-2-ylmethyl]-2-isopropyl-2H-indazole-7-carboxamide]	5.1 to 20
CC(C)n1cc2cccc(C(=O)NCC3C4CN(CC5CCOCC5)CC34)c2n1 (centres unmarked) [Example 10, N—[N-(tetrahydropyran-4-ylmethyl)-3-azabicyclo[3.1.0]hexane-6-ylmethyl]-2-isopropyl-2H-indazole-7-carboxamide]	1.1 to 5
CC(C)n1cc2cccc(C(=O)NCC3CCN(CC4(O)CCCC4)CC3)c2n1 [Example 11, N—[N-(1-hydroxycyclopentylmethyl)piperidin-4-ylmethyl]-2-isopropyl-2H-indazole-7-carboxamide L(+) tartarate]	≤ 1
CC(C)n1cc2cccc(C(=O)NCC3C4CN(C5CCOCC5)CC34)c2n1 (centres unmarked) [Example 12, N—[N-(tetrahydropyran-4-yl)-3-azabicyclo[3.1.0]hexane-6-ylmethyl]-2-isopropyl-2H-indazole-7-carboxamide]	1.1 to 5
CC(C)N1CCC(CNC(=O)c2cccc3cn(C(C)C)nc23)CC1 [Example 13, N—(N-isopropylpiperidin-4-ylmethyl)-2-isopropyl-2H-indazole-7-carboxamide fumarate]	≤ 1
CC(C)n1cc2cccc(C(=O)NCC3CCN(C4CCC4)CC3)c2n1 [Example 14, N—(N-cyclobutylpiperidin-4-ylmethyl)-2-isopropyl-2H-indazole-7-carboxamide fumarate]	≤ 1
CC(C)n1cc2cccc(C(=O)NCC3CCN(C4CCCCC4)CC3)c2n1 [Example 15, N—(N-cyclohexylpiperidin-4-ylmethyl)-2-isopropyl-2H-indazole-7-carboxamide fumarate]	≤ 1
CC(C)N1CC2C(CNC(=O)c3cccc4cn(C(C)C)nc34)C2C1 (centres unmarked) [Example 16, N—(N-isopropyl-3-azabicyclo[3.1.0]hexane-6-ylmethyl)-2-isopropyl-2H-indazole-7-carboxamide fumarate]	1.1 to 5
CC(C)n1cc2cccc(C(=O)NCC3CCN(CC4(O)CCOCC4)CC3)c2n1 [Example 17, N—[N-(4-hydroxytetrahydropyran-4-ylmethyl)piperidin-4-ylmethyl]-2-isopropyl-2H-indazole-7-carboxamide fumarate]	≤ 1
CCn1cc2cccc(C(=O)NCC3C4CN(C5CCOCC5)CC34)c2n1 (centres unmarked) [Example 18, N—[N-(tetrahydropyran-4-yl)-3-azabicyclo[3.1.0]hexane-6-ylmethyl]-2-ethyl-2H-indazole-7-carboxamide oxalate]	5.1 to 20
CC(C)N1CCC(NC(=O)c2cccc3cn(C(C)C)nc23)CC1 [Example 19, N—(N-isopropylpiperidine-4-yl)-2-isopropyl-2H-indazole-7-carboxamide fumarate]	20.1 to 50
CC(C)n1cc2cccc(C(=O)NC3CCN(CC4CC4)CC3)c2n1 [Example 20, N—(N-cyclopropylmethylpiperidine-4-yl)-2-isopropyl-2H-indazole-7-carboxamide fumarate]	5.1 to 20
CC(C)n1cc2cccc(C(=O)NC3CCN(CC4CCC4)CC3)c2n1 [Example 21, N—(N-cyclobutylmethylpiperidine-4-yl)-2-isopropyl-2H-indazole-7-carboxamide fumarate]	5.1 to 20

Compound	EC50 [nM]
CC(C)n1cc2cccc(C(=O)NCC3(F)CCN(CC4CCOCC4)CC3)c2n1 [Example 22, N—[(N-tetrahydropyran-4-ylmethyl)-4-fluoropiperidin-4-ylmethyl]-2-isopropyl-2H-indazole-7-carboxamide]	1.1 to 5
CC(C)n1cc2cccc(C(=O)NCC3CCN(CC4CCOC4)CC3)c2n1 (centres unmarked) [Example 23, N—[(N-tetrahydrofuran-3-ylmethyl)piperidin-4-ylmethyl]-2-isopropyl-2H-indazole-7-carboxamide]	≤ 1
COCCCN1CCC(CNC(=O)c2cccc3cn(C(C)C)nc23)CC1 [Example 24, N—[N-(3-methoxypropyl)piperidin-4-ylmethyl]-2-isopropyl-2H-indazole-7-carboxamide fumarate]	≤ 1
COCCN1CCC(CNC(=O)c2cccc3cn(C(C)C)nc23)CC1 [Example 25, N—[N-(2-methoxyethyl)piperidin-4-ylmethyl]-2-isopropyl-2H-indazole-7-carboxamide fumarate]	1.1 to 5
CC(C)n1cc2cccc(C(=O)NCC3(O)CCN(CC4CCOCC4)CC3)c2n1 [Example 26, N—[(N-tetrahydropyran-4-ylmethyl)-4-hydroxypiperidin-4-ylmethyl]-2-isopropyl-2H-indazole-7-carboxamide fumarate]	1.1 to 5
CC(C)n1cc2cccc(C(=O)NCC3(O)CCN(C4CCOCC4)CC3)c2n1 [Example 27, N—[(N-tetrahydropyran-4-yl)-4-hydroxypiperidin-4-ylmethyl]-2-isopropyl-2H-indazole-7-carboxamide fumarate]	1.1 to 5
COCCCN1CCC(O)(CNC(=O)c2cccc3cn(C(C)C)nc23)CC1 [Example 28, N—[N-(3-methoxypropyl)-4-hydroxypiperidin-4-ylmethyl]-2-isopropyl-2H-indazole-7-carboxamide fumarate]	1.1 to 5
CC(C)n1cc2cccc(C(=O)NCC3CCN(CCC(C)(C)O)CC3)c2n1 [Example 29, N—[N-(3-Hydroxy-3-methylbutyl)piperidin-4-ylmethyl]-2-isopropyl-2H-indazole-7-carboxamide]	≤ 1
CC(C)n1cc2cccc(C(=O)NCC3(O)CCN(CC(C)(C)O)CC3)c2n1 [Example 30, N—[N-(2-hydroxy-2-methylpropyl)-4-hydroxypiperidin-4-ylmethyl]-2-isopropyl-2H-indazole-7-carboxamide oxalate]	1.1 to 5
CC(C)n1cc2cccc(C(=O)NCC3(F)CCN(CC4(O)CCOCC4)CC3)c2n1 [Example 31, N—[N-(4-hydroxytetrahydropyran-4-ylmethyl)-4-fluoropiperidin-4-ylmethyl]-2-isopropyl-2H-indazole-7-carboxamide L(+) Tartarate]	1.1 to 5
COC(C)(C)CN1CCC(CNC(=O)c2cccc3cn(C(C)C)nc23)CC1 [Example 33, N—[N-(2-Methoxy-2-methylpropyl)piperidin-4-ylmethyl]-2-isopropyl-2H-indazole-7-carboxamide]	≤ 1
CC(C)n1cc2cccc(C(=O)NCC3CCN(CC(C)(C)F)CC3)c2n1 [Example 34, N—[N-(2-fluoro-2-methylpropyl)piperidin-4-ylmethyl]-2-isopropyl-2H-indazole-7-carboxamide L(+) Tartarate]	≤ 1
CC(C)n1cc2cccc(C(=O)NCC3(F)CCN(CC(C)(C)O)CC3)c2n1 [Example 35, N—[N-(2-hydroxy-2-methylpropyl)-4-fluoropiperidin-4-ylmethyl]-2-isopropyl-2H-indazole-7-carboxamide L(+) Tartarate]	5.1 to 20
CC(C)n1cc2cccc(C(=O)NCC3C4CN(CC(C)(C)O)CC34)c2n1 (stereo not drawn) [Example 36, N—[N-(2-hydroxy-2-methylpropyl)-3-azabicyclo[3.1.0]hexane-6-ylmethyl]-2-isopropyl-2H-indazole-7-carboxamide L(+) Tartarate]	5.1 to 20
COCCCN1CCC(c2nnc(-c3cccc4cn(C(C)C)nc34)o2)CC1 [Example 37, 2-isopropyl-7-{5-[1-(3-methoxypropyl)piperidin-4-yl]-[1,3,4]oxadiazol-2-yl)}-2H-indazole fumarate]	5.1 to 20
CC(C)n1cc2cccc(-c3nnc(C4CCN(CC5CCOCC5)CC4)o3)c2n1 [Example 38, 2-Isopropyl-7-{5-[1-(tetrahydropyran-4-ylmethyl)piperidin-4-yl]-[1,3,4]oxadiazol-2-yl}-2H-indazole fumarate]	5.1 to 20
CC(C)n1cc2cccc(-c3nnc(C4CCN(C5CCOCC5)CC4)o3)c2n1 [Example 39, 2-Isopropyl-7-{5-[1-(tetrahydropyran-4-yl)piperidin-4-yl]-[1,3,4]oxadiazol-2-yl}-2H-indazole fumarate]	1.1 to 5

Source: US9951045B2, “Indazole compounds as 5-HT4 receptor agonists” (SUVEN LIFE SCIENCES LIMITED, priority 2013, dated 2018)
